From patent US20050148838A1, “Pharmaceutical discovery and development” (priority 2002, published 2005)

What was measured:
[1] = Coulometric EC-MS (voltammetric mass spectrometry), Phase I type EC oxidation; format: physicochemical; settings: per product ion
From the text: Referring to FIG. 1A, a Model 1100 LC/MSD single quadrupole mass spectrometer 10 (Agilent Technologies, Palo Alto, Calif., USA) was used in combination with a Coulochem® III ECD 12 and Model 5021 coulometric cell 14 (ESA Inc., Chelmsford, Mass., USA).
Compounds are characterized via automated sequences, in which EC potential is changed from, e.g., 0-1200 mV(vs. Pd) in increments of, e.g., 200 mV. EC current and MS ion abundance at specific mass-to-charge ratios (m/z) is monitored. In accordance with the present invention, EC (e.g., coulometric, or amperometric) and reaction product profiles for various drug candidates can be obtained reproducibly. Peak area for parent compounds is inversely proportional to EC response with concomitant formation of reaction products.

[2] = EC-MS oxidation with co-injected glutathione (Phase II type conjugation of EC-generated electrophiles)
Description: Compounds (200 ng each), diluted in mobile phase (50% aqueous methanol with added electrolyte), were introduced into the system by FIA with a solvent flow rate of 0.1 ml /minute. Compounds undergoing rapid electrolysis and products were monitored by MS. Each compound was analyzed at several oxidative potentials (e.g., −100, 300, 700, 1100 mV vs. Pd reference). Substrate-product pairs were used to aid in the study of Phase I type product formation as a function of potential (i.e. voltammetric mass spectrometry, VMS).
For Phase I type EC transformation studies, changes in EC current, and the corresponding consumption (oxidation) of substrate and associated product formation were monitored as a function of electrode potential. In these studies a solvent flow rate of 0.1 ml/min. was used with ESI and a single analysis was complete in less than 2.5 min. To study both Phase I oxidative reactions and potential-dependent covalent binding (Phase II) total time for characterization of each compound required approximately 15 min. (6 analyses/compound).
To further examine these products, nucleophilic compounds were added to each solution and co-injected with test compounds to investigate the capability of EC-MS to model metabolic activation and resultant reactions with nucleophiles.

Row | Structure (SMILES) | E½ (½ wave potential for product formation) [1] [mV vs. Pd] | glutathionyl addition products formed on EC oxidation [2]
1 | CC(C)NCC(O)COc1cccc2ccccc12 (stereo not shown) [Propranolol] | 1000 | 
2 | CSCC[C@H](N)C(=O)O [Methionine] | 1100 | 
3 | C[C@]12CC[C@@H]3c4ccc(O)c(O)c4CC[C@H]3[C@@H]1CC[C@@H]2O [4-Hydroxyestradiol] | 250 | 
4 | COc1c(O)ccc2c1CC[C@@H]1[C@@H]2CC[C@]2(C)[C@@H](O)CC[C@@H]12 [4-Methoxyestradiol] | 450 | 
5 | N[C@@H](CCS)C(=O)O [Homocysteine] | 1100 | 
6 | C[C@]12CC[C@@H]3c4cc(O)c(O)cc4CC[C@H]3[C@@H]1CC[C@@H]2O [2-Hydroxyestradiol] | 250 | 
7 | CN(C)CCCN1c2ccccc2CCc2ccccc21 [Imipramine] | 650 | 
8 | COc1cc2c(cc1O)CC[C@@H]1[C@@H]2CC[C@]2(C)[C@@H](O)CC[C@@H]12 [2-Methoxyestradiol] | 450 | 
9 | Cc1cc(C(C)(C)C)c(O)c(C(C)(C)C)c1 [BHT] |  | mono-glutathionyl addition product
10 | CCCCN1C[C@H](O)[C@@H](O)[C@H](O)[C@H]1CO [N-butyldeoxynojirimycin] | 1000 | 
